Assay results taken from patent US11160788B2, “Caspase-1 inhibition and uses thereof for prevention and treatment of neurological conditions” (priority 2016, dated 2021).
Entries after “also recorded” stand apart in the source; their conditions may differ.

Columns and labels:
[1] = system: serum deprived human primary neurons; assay: Neuritic beading in serum-deprived human primary neurons; format: cell-based
Experimental: FIG. 13: VX-765 protects CNS primary human neurons (HPN) against APP- or serum deprivation-mediated neuritic beading. (a) MTT assay with increasing dose of VX-765. (b) Fluorescent micrographs showing homogeneous distribution of EGFP in normal neurons and neuritic beading in APP-transfected neurons. (c) Percentage beading in APP-transfected or serum-deprived neurons treated 1 h before and continuously with stressor (Pre-treatment) or 48 h after stressor (post-beading treatment) with 25 or 50 μM VX-765 or with 5 μM Z-YVAD-fmk Casp1 peptide inhibitor. […] (d-e) HPN secreted or cellular Aβ42/total Aβ38+40+42 (d) (F(3,4)=12.73, p=0.0163, ANOVA, Dunnett's post-hoc compared to Serum+DMSO, *p<0.05), and (e) levels of secreted II-1β, IFN-γ, TNF-α, and II-6 from untreated (+S), serum deprived (−S), or serum-deprived human neurons treated with 25 or 50 μM VX-765.
EGFP-labeled human primary neurons were either APP^WT transfected or serum deprived. Two treatment strategies were employed to determine VX-765's effects on neuronal degeneration: our Pre-Treatment strategy looked at whether VX-765 could block neuronal degeneration when administered 1 hr prior to APP^WT transfection or serum deprivation, while our Reversal Treatment strategy looked at whether VX-765 could reverse degenerative effects when administered 48 hrs after APP^WT transfection or serum deprivation. Neurons displaying beaded morphology were counted with live imaging and measured as a percentage of the total number of eGFP+ neurons from 24-72 hrs after treatment. The irreversible caspase-1 inhibitor YVAD-fmk was used as positive control in our experiments. Results were obtained from averaging counts for at least 100 eGFP+ neurons per experiment in three independent neuron preparations.

J20 mice = assay: Novel object recognition (NOR), treatment of symptomatic J20 mice; format: in vivo, mouse; settings: for NOR behavior: 10 mg/kg; for NOR discrimination index: 25 mg/kg; for NOR deficit: 50 mg/kg IP
Source text: FIG. 8: VX-765 treatment restores cognitive function in J20 mice. (a) Experimental paradigm. Intraperitoneal vehicle-injected wild type (WT+Vehicle; n=13) and J20 mice (J20+Vehicle: n=9), and VX-765-injected J20 mice (J20+VX-765: n=9) mice were behaviourally assessed at 5 different time-points: baseline before treatment (baseline untreated J20 were grouped together; n=18), after 3 IP injections/wk of VX-765 or vehicle (Treatment 1), after 6 additional injections over 2 weeks (Treatment 2), after 4-week Washout period, and after an additional 3 injections in one week (Treatment 3). Mice were sacrificed at 8 months of age after Treatment 3 (b) NOR Discrimination index (Treatment main effect, F(2,20)=85.8, p<0.0001; Time main effect, F(4,80)=4.188, p=0.0039; Treatment×Time interaction, F(8,80)=[…], two-way repeated-measures ANOVA, Dunnett's post-hoc compared to J20+Vehicle). (c) Distance traveled during Open Field task. Data analyzed by repeated measures two-way ANOVA (Treatment main effect, F(2,19)=11.47, p=0.0005; Treatment×Time interaction, F(8,76)=5.69, p<0.0001, two-way repeated-measures ANOVA, Dunnett's post-hoc compared to J20+Vehicle). (d-i) Barnes maze analysis. Learning acquisition (d,g), probe test primary latency and errors (e,h), and target hole preference (f,i); # of pokes of each hole labelled +1 to +9 to the right or −1 to −9 to the left of the target hole during the probe) after Treatment 2 (d-f) and Washout (g-i). Probe tests were analyzed (Treatment 2 primary latency, F(2,52)=5.879, p=0.0050; Treatment 2 primary errors, F(2,52)=9.998, p=0.0002; Washout primary latency, F(2,22)=4.076, p=0.0312; Washout primary errors, F(2,22)=10.84, p=0.0005, ANOVA, Tukey's post-hoc). * p<0.05, ***p<0.001, ****p<0.0001.
[…] The 20-week-old mice were treated per the paradigm in section. VX-765 reverses episodic memory deficits in the J20 mouse.
Anxiety and hyperactivity are monitored in an open-field paradigm, episodic memory with the NOR, spatial memory with the Barnes maze, and short or long term working memory with the Y maze before and after treatments. Repeated measures are acceptable for the NOR, Barnes and Y maze^2-4.
J20 and littermate WT mice (20 wks) were first tested for episodic memory deficits with Novel Object Recognition (NOR) and anxiety and hyperactivity in an open-field paradigm. […] The injections were continued for 2 weeks at 3 injections/week (48 hr intervals between injections and 3 day interval between weeks) and mice retested. […]

mouse recombinant Casp1 = target: T1, mouse recombinant Casp1 (Mus musculus, UniProt P29452); assay: Caspase inhibition IC50, mouse recombinant Casp1; format: biochemical; settings: read-out: IC50 against mouse Casp1
T1 sequence (P29452 119-296 limits assumed): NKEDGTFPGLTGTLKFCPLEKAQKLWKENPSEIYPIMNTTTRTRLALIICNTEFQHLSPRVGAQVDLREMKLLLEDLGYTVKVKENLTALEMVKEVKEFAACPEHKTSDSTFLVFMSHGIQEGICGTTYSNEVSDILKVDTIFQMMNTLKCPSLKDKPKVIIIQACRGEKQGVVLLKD
T1 sequence (P29452 315-402 limits assumed): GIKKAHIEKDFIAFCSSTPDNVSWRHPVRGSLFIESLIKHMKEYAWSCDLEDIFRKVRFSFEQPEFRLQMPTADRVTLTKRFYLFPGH
Experimental: FIG. 14: Selectivity and blood brain permeability of VX-765 and VRT-043198. (a-b) IC50 of VX-765 (a) and VRT-043198 (b) against human Casp1-10. (c-d) IC50 of VX-765 (c) and VRT-043198 (d) against mouse Casp1 and Casp11. (e) Blood brain barrier permeability and presence of VX-765 and VRT-043198 in 3 wild type and 4 J20 mice brain cortex and hippocampus and in plasma. Ratios of brain levels to plasma levels are calculated.

IC50 (mouse recombinant Casp1): 52.1 nM
Structure (SMILES): CCO[C@@H]1OC(=O)C[C@@H]1NC(=O)[C@@H]1CCCN1C(=O)[C@@H](NC(=O)c1ccc(N)c(Cl)c1)C(C)(C)C [VX-765, (S)-1-((S)-2-{[1-(4-amino-3-chloro-phenyl)-methanoyl]-amino}-3,3-dimethyl-butanoyl)-pyrrolidine-2-carboxylic acid ((2R,3S)-2-ethoxy-5-oxo-tetrahydro-furan-3-yl)-amide]
neuritic beading ([1]; pre-treatment 1 h before serum deprivation): particularly effective in reducing neuritic beading at 72 hrs; also recorded: protected against, albeit less strongly | neuritic beading ([1]; reversal treatment 48 hrs after serum deprivation): neither YVAD nor VX-765 were able to reverse neuritic beading | NOR behavior (J20 mice; Treatment 1 and 2): normalized NOR behavior only after T2 | NOR behavior (J20 mice; Treatment 3): reappeared after T3 | NOR behavior (J20 mice; washout): washed out | NOR discrimination index (J20 mice; Treatment 1): normalized | NOR discrimination index (J20 mice; Treatment 2): normalized | NOR discrimination index (J20 mice; Treatment 3): returned to normal at T3 | NOR discrimination index (J20 mice; washout): deficits reappeared after WO | NOR deficit (J20 mice; after 3 injections (Treatment 1)): reverted to normal; also recorded: reversed and reached near-normal levels | NOR deficit (J20 mice; after 3 more injections (Treatment 3)): attenuated NOR deficits; also recorded: disappeared again after T3 | NOR deficit (J20 mice; after 4-week washout): NOR deficits reappeared; also recorded: reappeared after the WO period | NOR deficit (J20 mice; after additional 2 weeks of injections (Treatment 2)): continued to perform normally; also recorded: reversed and reached near-normal levels
